These results are taken from the supplement of paper PMC11368000.

Bounds are passed on as bounds.

The first assay has as its system 1535 (donor line of iPSC-derived cardiomyocytes). Description: POD (EC05) for decrease in beat frequency (negative chronotrope) vs vehicle; higher = less potent (higher point of departure). The note with it: exposure time: 90 min. As to the method:
(§1)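 Human iPSC-derived cardiomyocytes from 16 donors were exposed for 90 min at 37 °C to each PFAS at 0.1, 1, 10 and 100 µM in 0.5% DMSO, 384-well plates. Kinetic Ca2+ flux (FLIPR) and Hoechst nuclei counts were normalised to vehicle wells and fitted with a hierarchical Bayesian Hill model to give donor-specific PODs: EC05 for beat-rate increase or decrease and for decay-to-rise ratio increase (QT proxy), EC95 for peak-frequency loss (asystole), EC10 for total cell number loss. 0.03 µM is the lower bound.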
Consider `OCC(F)(F)C(F)(F)C(F)(F)F` [Heptafluorobutanol], for which the POD vs vehicle was more than 100 µM.

The molecule `OCC(F)(F)C(F)(F)C(F)(F)CO` [Hexafluoroamylene_glycol] registered a POD vs vehicle of more than 100 µM.

For the molecule `COC(=O)C(F)(F)C(F)(F)OC(F)(C(F)(F)F)C(F)(F)OC(F)=C(F)F` (stereo not drawn) [Methyl_perfluoro(3-(1-ethenyloxypropan-2-yloxy)propanoate)], the POD vs vehicle was more than 100 µM.

`NC(=O)C(F)(F)C(F)(F)C(F)(F)C(F)(F)F` [Nonafluoropentanamide] displayed a POD vs vehicle of more than 100 µM.

Take `NC(=O)C(F)(F)C(F)(F)C(F)(F)C(F)(F)C(N)=O` [Octafluoroadipamide]: the POD vs vehicle was more than 100 µM.

In turn, `O=C(O)C(F)(F)C(F)(F)C(F)(F)C(F)(F)C(=O)O` [Octafluoroadipic_acid] showed a POD vs vehicle of more than 100 µM.

Consider `O=C(O)C(F)(F)C(F)(F)C(F)(F)OC(F)(F)F` [Perfluoro(4-methoxybutanoic)_acid], for which the POD vs vehicle is more than 100 µM.

On to `O=C(O)C(F)(F)OC(F)(F)C(F)(F)OC(F)(F)C(F)(F)OC(F)(F)C(F)(F)C(F)(F)C(F)(F)F` [Perfluoro-3,6,9-trioxatridecanoic_acid], for which the POD vs vehicle is 79.4 µM.

Molecule `O=C(O)C(F)(F)OC(F)(F)C(F)(F)OC(F)(F)F` [Perfluoro-3,6-dioxaheptanoic_acid] showed a POD vs vehicle of more than 100 µM.

`O=C(O)C(F)(F)OC(F)(F)C(F)(F)OC(F)(F)C(=O)O` [Perfluoro-3,6-dioxaoctane-1,8-dioic_acid]: the POD vs vehicle was more than 100 µM.

For the next assay, the system named is 20032 (donor line of iPSC-derived cardiomyocytes). The assay is described as above. The note with it: exposure time: 90 min. The procedure: as §1
`OCCC(F)(F)C(F)(F)C(F)(F)C(F)(F)C(F)(F)C(F)(F)F` [6:2 Fluorotelomer alcohol]: the POD vs vehicle was more than 100 µM.

`O=S(=O)(O)CCC(F)(F)C(F)(F)C(F)(F)C(F)(F)C(F)(F)C(F)(F)F` [6:2 Fluorotelomer sulfonic acid] yielded a POD vs vehicle of more than 100 µM.

With `OCCC(F)(F)C(F)(F)C(F)(F)C(F)(F)C(F)(F)C(F)(F)C(F)(F)C(F)(F)F` [8:2 Fluorotelomer alcohol], the POD vs vehicle was more than 100 µM.

`O=S(=O)(O)CCC(F)(F)C(F)(F)C(F)(F)C(F)(F)C(F)(F)C(F)(F)C(F)(F)C(F)(F)F` [8:2 Fluorotelomer sulfonic acid] returned a POD vs vehicle of 34.5 µM.

Consider `O=C(O)C(F)(F)C(F)(F)C(F)(F)C(F)(F)C(F)(F)C(F)(F)C(F)(F)C(F)(F)Cl` [9-Chloro-perfluorononanoic_acid], for which the POD vs vehicle came to 44.8 µM.

As for `O=P(O)(O)CCC(F)(F)C(F)(F)C(F)(F)C(F)(F)C(F)(F)C(F)(F)C(F)(F)C(F)(F)F` [((Perfluorooctyl)ethyl)phosphonic_acid], the POD vs vehicle is more than 100 µM.

Molecule `O=C([O-])C(F)(F)C(F)(F)C(F)(F)C(F)(F)C(F)(F)C(F)(F)C(F)(F)F.[NH4+]` [Ammonium_perfluorooctanoate] displayed a POD vs vehicle of 79.9 µM.

`OCC(F)(F)C(F)(F)C(F)(F)C(F)(F)C(F)(F)C(F)F` [Dodecafluoroheptanol] yielded a POD vs vehicle of 18.3 µM.

Take `OCC(F)(F)OC(F)(F)C(F)(F)OC(F)(F)C(F)(F)OC(F)(F)F` [Fluorinated_triethylene_glycol_monomethyl_ether]: the POD vs vehicle was more than 100 µM.

Consider `OCC(F)(F)C(F)(F)C(F)(F)F` [Heptafluorobutanol], for which the POD vs vehicle was more than 100 µM.

In the case of `OCC(F)(F)C(F)(F)C(F)(F)CO` [Hexafluoroamylene_glycol], the POD vs vehicle was more than 100 µM.

The molecule `COC(=O)C(F)(F)C(F)(F)OC(F)(C(F)(F)F)C(F)(F)OC(F)=C(F)F` (stereo not drawn) [Methyl_perfluoro(3-(1-ethenyloxypropan-2-yloxy)propanoate)] displayed a POD vs vehicle of more than 100 µM.

For `NC(=O)C(F)(F)C(F)(F)C(F)(F)C(F)(F)F` [Nonafluoropentanamide], the POD vs vehicle was more than 100 µM.

For `NC(=O)C(F)(F)C(F)(F)C(F)(F)C(F)(F)C(N)=O` [Octafluoroadipamide], the POD vs vehicle was more than 100 µM.

`O=C(O)C(F)(F)C(F)(F)C(F)(F)C(F)(F)C(=O)O` [Octafluoroadipic_acid] yielded a POD vs vehicle of more than 100 µM.

Consider `O=C(O)C(F)(F)C(F)(F)C(F)(F)OC(F)(F)F` [Perfluoro(4-methoxybutanoic)_acid], for which the POD vs vehicle is more than 100 µM.

On to `O=C(O)C(F)(F)OC(F)(F)C(F)(F)OC(F)(F)C(F)(F)OC(F)(F)C(F)(F)C(F)(F)C(F)(F)F` [Perfluoro-3,6,9-trioxatridecanoic_acid], for which the POD vs vehicle worked out at 42 µM.

Consider `O=C(O)C(F)(F)OC(F)(F)C(F)(F)OC(F)(F)F` [Perfluoro-3,6-dioxaheptanoic_acid], for which the POD vs vehicle is more than 100 µM.

With `O=C(O)C(F)(F)OC(F)(F)C(F)(F)OC(F)(F)C(=O)O` [Perfluoro-3,6-dioxaoctane-1,8-dioic_acid], the POD vs vehicle is more than 100 µM.

The next assay deals with 1368 (donor line of iPSC-derived cardiomyocytes). The assay is described as above. The note with it: exposure time: 90 min. The procedure:
as §1
For `OCCC(F)(F)C(F)(F)C(F)(F)C(F)(F)C(F)(F)C(F)(F)F` [6:2 Fluorotelomer alcohol], the POD vs vehicle is more than 100 µM.

Consider `O=S(=O)(O)CCC(F)(F)C(F)(F)C(F)(F)C(F)(F)C(F)(F)C(F)(F)F` [6:2 Fluorotelomer sulfonic acid], for which the POD vs vehicle was more than 100 µM.

As for `OCCC(F)(F)C(F)(F)C(F)(F)C(F)(F)C(F)(F)C(F)(F)C(F)(F)C(F)(F)F` [8:2 Fluorotelomer alcohol], the POD vs vehicle was more than 100 µM.

In turn, `O=S(=O)(O)CCC(F)(F)C(F)(F)C(F)(F)C(F)(F)C(F)(F)C(F)(F)C(F)(F)C(F)(F)F` [8:2 Fluorotelomer sulfonic acid] gave a POD vs vehicle of more than 100 µM.

The molecule `O=C(O)C(F)(F)C(F)(F)C(F)(F)C(F)(F)C(F)(F)C(F)(F)C(F)(F)C(F)(F)Cl` [9-Chloro-perfluorononanoic_acid] yielded a POD vs vehicle of more than 100 µM.

The molecule `O=P(O)(O)CCC(F)(F)C(F)(F)C(F)(F)C(F)(F)C(F)(F)C(F)(F)C(F)(F)C(F)(F)F` [((Perfluorooctyl)ethyl)phosphonic_acid] came in with a POD vs vehicle of more than 100 µM.

For the molecule `O=C([O-])C(F)(F)C(F)(F)C(F)(F)C(F)(F)C(F)(F)C(F)(F)C(F)(F)F.[NH4+]` [Ammonium_perfluorooctanoate], the POD vs vehicle was more than 100 µM.

`OCC(F)(F)C(F)(F)C(F)(F)C(F)(F)C(F)(F)C(F)F` [Dodecafluoroheptanol] gave a POD vs vehicle of 13.7 µM.

As for `OCC(F)(F)OC(F)(F)C(F)(F)OC(F)(F)C(F)(F)OC(F)(F)F` [Fluorinated_triethylene_glycol_monomethyl_ether], the POD vs vehicle was more than 100 µM.

Take `OCC(F)(F)C(F)(F)C(F)(F)F` [Heptafluorobutanol]: the POD vs vehicle is more than 100 µM.

In the case of `OCC(F)(F)C(F)(F)C(F)(F)CO` [Hexafluoroamylene_glycol], the POD vs vehicle is more than 100 µM.

In turn, `COC(=O)C(F)(F)C(F)(F)OC(F)(C(F)(F)F)C(F)(F)OC(F)=C(F)F` (stereo not drawn) [Methyl_perfluoro(3-(1-ethenyloxypropan-2-yloxy)propanoate)] returned a POD vs vehicle of more than 100 µM.

For the molecule `NC(=O)C(F)(F)C(F)(F)C(F)(F)C(F)(F)F` [Nonafluoropentanamide], the POD vs vehicle is more than 100 µM.

In turn, `NC(=O)C(F)(F)C(F)(F)C(F)(F)C(F)(F)C(N)=O` [Octafluoroadipamide] came in with a POD vs vehicle of more than 100 µM.

`O=C(O)C(F)(F)C(F)(F)C(F)(F)C(F)(F)C(=O)O` [Octafluoroadipic_acid] had a POD vs vehicle of more than 100 µM.

As for `O=C(O)C(F)(F)C(F)(F)C(F)(F)OC(F)(F)F` [Perfluoro(4-methoxybutanoic)_acid], the POD vs vehicle is more than 100 µM.

`O=C(O)C(F)(F)OC(F)(F)C(F)(F)OC(F)(F)C(F)(F)OC(F)(F)C(F)(F)C(F)(F)C(F)(F)F` [Perfluoro-3,6,9-trioxatridecanoic_acid] showed a POD vs vehicle of more than 100 µM.

Molecule `O=C(O)C(F)(F)OC(F)(F)C(F)(F)OC(F)(F)F` [Perfluoro-3,6-dioxaheptanoic_acid] came in with a POD vs vehicle of more than 100 µM.

Consider `O=C(O)C(F)(F)OC(F)(F)C(F)(F)OC(F)(F)C(=O)O` [Perfluoro-3,6-dioxaoctane-1,8-dioic_acid], for which the POD vs vehicle is more than 100 µM.
